Test results taken from patent US20140045823A1 (Neurocrine Biosciences, Inc., priority 2012, published 2014).

What follows are compounds tested against T1, human GPR119 (Homo sapiens, UniProt Q8TDV5) (assay: AlphaScreen cAMP assay in MIN6 cells stably transfected with human GPR119). Conditions: Min-6/hGPR119 cells, 45 min at room temperature.
T1 construct: expression vector for human GPR119 cDNA (Acc. No. NP_848566); expressed in transfected cells; Min-6/hGPR119
T1 sequence (Q8TDV5 1-335): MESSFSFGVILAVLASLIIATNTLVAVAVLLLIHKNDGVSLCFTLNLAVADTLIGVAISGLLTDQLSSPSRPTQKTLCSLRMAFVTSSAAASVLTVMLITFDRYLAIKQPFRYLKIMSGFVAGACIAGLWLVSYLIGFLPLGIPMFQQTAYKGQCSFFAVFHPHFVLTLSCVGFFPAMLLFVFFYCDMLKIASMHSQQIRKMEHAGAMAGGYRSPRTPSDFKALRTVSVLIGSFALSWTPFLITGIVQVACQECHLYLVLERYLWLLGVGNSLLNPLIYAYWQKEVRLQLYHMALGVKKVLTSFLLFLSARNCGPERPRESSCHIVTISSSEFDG
Format: cell-based
Summary of the method: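 cAMP accumulation quantified by AlphaScreen after 45 min compound stimulation at about 20 °C. Stimulation buffer: pH 7.4 HEPES saline with 0.5 mM IBMX, 0.1% BSA, 1% DMSO final. Cells: MIN6 stably transfected with human GPR119, 10000/well, cultured 24 h beforehand.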

Row | SMILES | EC50
1 | CC(C)(C)OC(=O)N1CCC(N(C(=O)c2cnc(-c3ccc(C(=O)Nc4ccccc4)cc3)nc2)C2CC2)CC1 [Example 183, 4-{Cyclopropyl-[2-(4-phenylcarbamoyl-phenyl)-pyrimidine-5-carbonyl]-amino}-piperidine-1-carboxylic acid tert-butyl ester] | 63 nM
2 | CC(C)(C)OC(=O)N1CCC(N(C(=O)c2cnc(-c3ccc(CC(=O)N4CC(F)(F)C4)cc3)nc2)C2CC2)CC1 [Example 184, 4-[Cyclopropyl-(2-{4-[2-(3,3-difluoro-azetidin-1-yl)-2-oxo-ethyl]-phenyl}-pyrimidine-5-carbonyl)-amino]-piperidine-1-carboxylic acid tert-butyl ester] | 149 nM
3 | COCc1sc(NC(=O)c2ccc(-c3ncc(C(=O)N(C4CC4)C4CCN(C(=O)OC(C)(C)C)CC4)cn3)cc2)nc1C [Example 185, 4-(Cyclopropyl-{2-[4-(5-methoxymethyl-4-methyl-thiazol-2-ylcarbamoyl)-phenyl]-pyrimidine-5-carbonyl}-amino)-piperidine-1-carboxylic acid tert-butyl ester] | 390 nM
4 | CN(CC1(C)COC1)C(=O)Cc1ccc(-c2ncc(C(=O)N(C3CC3)C3CCN(C(=O)OC(C)(C)C)CC3)cn2)cc1 [Example 186, 4-{Cyclopropyl-[2-(4-{[methyl-(3-methyl-oxetan-3-ylmethyl)-carbamoyl]-methyl}-phenyl)-pyrimidine-5-carbonyl]-amino}-piperidine-1-carboxylic acid tert-butyl ester] | 617 nM
5 | CC(C)(C)OC(=O)N1CCC(N(C(=O)c2cnc(-c3ccc(C(=O)N4CC(F)(F)C4)cc3)nc2)C2CC2)CC1 [Example 187, 4-(Cyclopropyl-{2-[4-(3,3-difluoro-azetidine-1-carbonyl)-phenyl]-pyrimidine-5-carbonyl}-amino)-piperidine-1-carboxylic acid tert-butyl ester] | 122 nM
6 | COc1ccc(NC(=O)Cc2ccc(-c3ncc(C(=O)N(C4CC4)C4CCN(C(=O)OC(C)(C)C)CC4)cn3)cc2)c(OC)c1 [Example 188, 4-[Cyclopropyl-(2-{4-[(2,4-dimethoxy-phenylcarbamoyl)-methyl]-phenyl}-pyrimidine-5-carbonyl)-amino]-piperidine-1-carboxylic acid tert-butyl ester] | 311 nM
7 | CC(C)(C)OC(=O)N1CCC(N(C(=O)c2cnc(-c3ccc(CC(=O)NC[C@H]4CCCC[C@H]4O)cc3)nc2)C2CC2)CC1 [Example 189] | 434 nM
8 | CC(C)(C)OC(=O)N1CCC(N(C(=O)c2cnc(-c3ccc(CC(=O)NCCOC(F)(F)F)cc3)nc2)C2CC2)CC1 [Example 191, 4-[Cyclopropyl-(2-{4-[(2-trifluoromethoxy-ethylcarbamoyl)-methyl]-phenyl}-pyrimidine-5-carbonyl)-amino]-piperidine-1-carboxylic acid tert-butyl ester] | 420 nM
9 | CO[C@@H]1CCN(C(=O)Cc2ccc(-c3ncc(C(=O)N(C4CC4)C4CCN(C(=O)OC(C)(C)C)CC4)cn3)cc2)C1 [Example 194, 4-[Cyclopropyl-(2-{4-[2-(3-methoxy-pyrrolidin-1-yl)-2-oxo-ethyl]-phenyl}-pyrimidine-5-carbonyl)-amino]-piperidine-1-carboxylic acid tert-butyl ester] | 325 nM
10 | COCCN(C)C(=O)Cc1ccc(-c2ncc(C(=O)N(C3CC3)C3CCN(C(=O)OC(C)(C)C)CC3)cn2)cc1 [Example 195, 4-{Cyclopropyl-[2-(4-{[(2-methoxy-ethyl)-methyl-carbamoyl]-methyl}-phenyl)-pyrimidine-5-carbonyl]-amino}-piperidine-1-carboxylic acid tert-butyl ester] | 486 nM
11 | COCC(C)NC(=O)Cc1ccc(-c2ncc(C(=O)N(C3CC3)C3CCN(C(=O)OC(C)(C)C)CC3)cn2)cc1 (centres unmarked) [Example 198, 4-[Cyclopropyl-(2-{4-[(2-methoxy-1-methyl-ethylcarbamoyl)-methyl]-phenyl}-pyrimidine-5-carbonyl)-amino]-piperidine-1-carboxylic acid tert-butyl ester] | 715 nM
12 | Cc1cnc(CNC(=O)Cc2ccc(-c3ncc(C(=O)N(C4CC4)C4CCN(C(=O)OC(C)(C)C)CC4)cn3)cc2)s1 [Example 199, 4-{Cyclopropyl-[2-(4-{[(5-methyl-thiazol-2-ylmethyl)-carbamoyl]-methyl}-phenyl)-pyrimidine-5-carbonyl]-amino}-piperidine-1-carboxylic acid tert-buyl ester] | 395 nM
13 | Cc1nc(CNC(=O)c2ccc(-c3ncc(C(=O)N(C4CC4)C4CCN(C(=O)OC(C)(C)C)CC4)cn3)cc2)cs1 [Example 201, 4-[Cyclopropyl-(2-{4-[(2-methyl-thiazol-4-ylmethyl)-carbamoyl]-phenyl}-pyrimidine-5-carbonyl)-amino]-piperidine-1-carboxylic acid tert-butyl ester] | 180 nM

Next, values leading:

Row | EC50 | SMILES
14 | 820 nM | CC(C)(C)OC(=O)N1CCC(N(C(=O)c2cnc(-c3ccc(C(=O)N4CCCC(O)C4)cc3)nc2)C2CC2)CC1 (centres unmarked) [Example 190, 4-(Cyclopropyl-{2-[4-(3-hydroxy-piperidine-1-carbonyl)-phenyl]-pyrimidine-5-carbonyl}-amino)-piperidine-1-carboxylic acid tert-buyl ester]
15 | 421 nM | CC(C)(C)OC(=O)N1CCC(N(C(=O)c2cnc(-c3ccc(CC(=O)N4CCCOCC4)cc3)nc2)C2CC2)CC1 [Example 192, 4-(Cyclopropyl-{2-[4-(2-[1,4]oxazepan-4-yl-2-oxo-ethyl)-phenyl]-pyrimidine-5-carbonyl}-amino)-piperidine-1-carboxylic acid tert-butyl ester]
16 | 300 nM | CN(CC1CCOCC1)C(=O)c1ccc(-c2ncc(C(=O)N(C3CC3)C3CCN(C(=O)OC(C)(C)C)CC3)cn2)cc1 [Example 193, 4-[Cyclopropyl-(2-{4-[methyl-(tetrahydro-pyran-4-ylmethyl)-carbamoyl]-phenyl}-pyrimidine-5-carbonyl)-amino]-piperidine-1-carboxylic acid tert-butyl ester]
17 | 215 nM | COCCN(C)C(=O)c1ccc(-c2ncc(C(=O)N(C3CC3)C3CCN(C(=O)OC(C)(C)C)CC3)cn2)cc1 [Example 196, 4-[Cyclopropyl-(2-{4-[(2-methoxy-ethyl)-methyl-carbamoyl]-phenyl}-pyrimidine-5-carbonyl)-amino]-piperidine-1-carboxylic acid tert-butyl ester]
18 | 169 nM | CN(Cc1cccnc1)C(=O)c1ccc(-c2ncc(C(=O)N(C3CC3)C3CCN(C(=O)OC(C)(C)C)CC3)cn2)cc1 [Example 197, 4-(Cyclopropyl-{2-[4-(methyl-pyridin-3-ylmethyl-carbamoyl)-phenyl]-pyrimidine-5-carbonyl}-amino)-piperidine-1-carboxylic acid tert-butyl ester]
19 | 449 nM | CN(C)C(=O)CNC(=O)c1ccc(-c2ncc(C(=O)N(C3CC3)C3CCN(C(=O)OC(C)(C)C)CC3)cn2)cc1 [Example 200, 4-(Cyclopropyl-{2-[4-(dimethylcarbamoylmethyl-carbamoyl)-phenyl]-pyrimidine-5-carbonyl}-amino)-piperidine-1-carboxylic acid tert-butyl ester]
20 | 171 nM | CN(CC1CCOC1)C(=O)c1ccc(-c2ncc(C(=O)N(C3CC3)C3CCN(C(=O)OC(C)(C)C)CC3)cn2)cc1 (centres unmarked) [Example 202, 4-[Cyclopropyl-(2-{4-[methyl-(tetrahydro-furan-3-ylmethyl)-carbamoyl]-phenyl}-pyrimidine-5-carbonyl)-amino]-piperidine-1-carboxylic acid tert-butyl ester]
